# Laboratory results as given in US20210254000A1, “PROCESS FOR PRODUCING A T CELL COMPOSITION” (Juno Therapeutics, Inc., priority 2017, published 2021).
# What was measured:
# [1] = tested on: engineered CD8+ and CD4+ T cells; assay: T cell expansion of anti-CD19 CAR-transduced CD4+ and CD8+ T cells incubated with mTOR kinase inhibitor; type: cell-based; details: human
# Experimental: Separate compositions of CD4+ and CD8+ cells were isolated from human leukapheresis samples by immunoaffinity-based enrichment and cryofrozen. The CD4+ and CD8+ cells of the compositions were subsequently thawed and activated by separately culturing the cells under stimulating conditions in the presence of anti-CD3/anti-CD28 magnetic beads and recombinant IL-2, IL-7 and/or IL-15 for approximately 20 hours. Cells were then transduced with a viral vector encoding an anti-CD19 chimeric antigen receptor (CAR). After transduction, the CD4+ and CD8+ cells were separately incubated in the presence of an mTOR kinase inhibitor, either Compound 155, Compound 63, or Compound 246, at various concentrations. For controls, cells were incubated with media only, DMSO vehicle, or with 200 nM PI-103. Incubation was carried out at 37° C. for approximately 8 days post-thaw with one media change, at which point the compounds were re-added to the culture media at the same concentration.
# The percent of CD8+ and CD4+ T cells at the end of the process as compared to the amount of cells seeded for culture following the transduction is shown in FIG. 2. The cutoff for selecting a tolerated dose was set at 70% of the mean values of the media and DMSO controls.
# [2] = tested on: CD8+ CAR-T cells; assay: Glycolytic metabolism (ECAR, Seahorse) of CD8+ CAR-T cells expanded with inhibitor; type: cell-based, human; details: CD8+ CAR-T cells expanded with 1 μM Compound 63; 3 donors
# Experimental: (§1) Separate compositions of CD4+ and CD8+ cells were isolated from three human donors, activated and transduced with a viral vector encoding an anti-CD19 CAR substantially as described in Example 2. After transduction, the CD4+ and CD8+ T cells derived from each donor were separately incubated for 8 days in the presence of a mTOR kinase inhibitor to expand T cells substantially as described in Example 2, except in the presence of 200 nM PI-103, 1 μM Compound 63, or with DMSO vehicle or media only controls. CD4+ and CD8+ T cells from each donor were then separately harvested, formulated, and cryofrozen. […] Functional activities of the generated anti-CD19 CAR-T cell compositions were assessed.
# Changes in cellular glycolytic metabolism in response to T cell receptor (TCR) stimulation were measured in CD8+ CAR-T cells from the generated anti-CD19 CAR-T cell composition prior to combining with CD4+ T cells. Glycolytic metabolism was assessed by measuring the extracellular acidification rate (ECAR) in CD8+ CAR-T cells in real time with an extracellular flux bioanalyzer (Seahorse Bioanalyzer, Agilent Technologies). […] Area under the curve (AUC) for the ECAR rates (mpH/min) from 0 to 76 minutes of the assay and maximal ECAR glycolytic burst ratio relative to media controls (n=3 donors) were determined.
# [3] = tested on: anti-CD19 CAR-T cells; assay: Serial stimulation assay with irradiated K562-CD19 target cells; type: cell-based, human; details: four rounds of restimulation with K562-CD19 cells; relative to media only
# Experimental: as §1
# The ability of cells to expand ex vivo following repeated stimulations in some aspects can indicate capacity of CAR-T cells to persist (e.g., following initial activation) and/or is indicative of function in vivo (Zhao et al. (2015) Cancer Cell, 28:415-28). […] Every 3-4 days, T cells were harvested, counted, and restimulated with new target cells using the same culture conditions after resetting cell number to initial seeding density for each round. […] The population doublings (FIG. 7A) and area under the curves (AUC) as a function of population doublings over time relative to AUC of cells expanded with media only (FIG. 7B) were determined.
smiles,measurement,setting,value
"CC(C)c1ccccc1-n1c(=O)[nH]c2c(C(N)=O)nc(-c3cccc(O)c3)nc21 [Compound 63, 2-(3-Hydroxyphenyl)-9-(2-isopropylphenyl)-8-oxo-8,9-dihydro-7H-purine-6-carboxamide]",highest tolerated dose resulting in similar CD8 and CD4 T cell expansion as vehicle control,[1],1 µM
same,"glycolytic burst upon TCR stimulation (ECAR AUC, ECAR ratio) relative to media control",[2],trend towards enhanced glycolytic burst
same,mean AUC of population doublings compared to T cells expanded with PI-103 or DMSO vehicle,[3],larger mean AUC
